{
  "source": "patent EP4733388A1",
  "about": "“LACTOBACILLUS RHAMNOSUS STRAIN, VIABLE BACTERIA FORMULATION AND PREPARATION METHOD THEREFOR AND USE THEREOF” (priority 2023, dated 2024)",
  "key": {"[1]": {"tested_on": "L. rhamnosus HOM1213 strain", "assay": "Antibiotic susceptibility test, K-B agar method (disc diffusion); as to Susceptibility (class by Diameter of Inhibition Zone), GG Group: key: S (susceptible) represents sensitivity; I (intermediate) represents moderate sensitivity; R (resistance) represents drug resistance; as to Susceptibility (class by Diameter of Inhibition Zone), HOM1213 Group: key: S (susceptible) represents sensitivity; I (intermediate) represents moderate sensitivity; R (resistance) represents drug resistance", "assay_type": "cell-based, Lactobacillus rhamnosus", "details": "for Susceptibility (class by Diameter of Inhibition Zone), HOM1213 Group: standard antibiotic disc, 37°C, 48 h, CLSI criteria, breakpoints in mm per antibiotic in c1-c3; for Susceptibility of L. rhamnosus HOM1213 strain to the antibiotic, in words: summary of Table 3", "protocol": "(§1) The drug susceptibility test was performed using the K-B agar method recommended by the National Committee for Clinical Laboratory Standards (NCCLS), the drug sensitivity test, as follows: • (1) The commercial strain L. rhamnosus GG strain was selected as the control strain. The L. rhamnosus HOM1213 strain and the GG strain were inoculated in MRS liquid medium at an inoculation amount of 3% of the total amount of the medium, cultured at 37°C for 24 hours, and activated continuously for 3 generations for later use. • (2) 1 mL of bacterial solution (1.5 × 10^8 CFU/mL) and 15 mL of MRS solid medium were mixed, and placed in a sterile culture dish, and mixed uniformly. A standard antibiotic susceptibility testing disc was placed after the plate was solidified, and cultured at 37°C for 48 h, and the diameter of the inhibition zone was measured and recorded.\n(§2) Table 3. Results of susceptibility test of L. rhamnosus HOM1213 strain on nine antibiotics."}, "L. rhamnosus GG strain": {"tested_on": "L. rhamnosus GG strain", "assay": "Antibiotic susceptibility test, K-B agar method (disc diffusion)", "assay_type": "cell-based, Lactobacillus rhamnosus", "details": "standard antibiotic disc, 37°C, 48 h; CLSI criteria, breakpoints in mm per antibiotic in c1-c3", "protocol": "as §1, §2"}, "[2]": {"tested_on": "superoxide dismutase (SOD)", "assay": "In vitro antioxidant capacity test: superoxide dismutase (SOD)", "details": "strain suspension 2 × 10^10 CFU/ml; vitamin C 0.05%; mean ± SD", "protocol": "(§3) The L. rhamnosus HOM1213 isolated in Example 1 and GG strains were inoculated in an MRS liquid medium at an inoculation amount of 3% of the total amount of the medium, fermented and cultured at 37°C for 24 h, activated continuously for 3 generations. It was centrifuged at 11000 rpm for 10 min, and the bacterial cells were washed with PBS buffer, resuspended and centrifuged, repeated three times. The count of bacteria was adjusted to 2 × 10^10 CFU/ml for later use. Indicators included total antioxidant capacity (T-AOC), superoxide dismutase (SOD), glutathione peroxidase (GSH-Px), glutathione (GSH), hydroxyl radical scavenging test (·OH), and DPPH radical scavenging test. The DPPH free radical scavenging test used a colorimetric method, and its principle was that the free radical scavenger donated an electron to pair with the lone pair electron of the DPPH free radicals, so that its own color changed from purple to yellow. Its absorbance at the wavelength of 517 nm decreased, and the degree of change has a linear relation to the degree of free radical scavenging, that is, the stronger the scavenging ability of the free radical scavenger, the lower the absorbance. Other indicators were determined by using a kit purchased from Nanjing Jiancheng Company, according to operation instructions. […]"}, "[3]": {"assay": "Hydroxyl radical scavenging test (·OH)", "details": "strain suspension 2 × 10^10 CFU/ml; vitamin C 0.05%; mean ± SD", "protocol": "as §3"}, "glutathione (GSH)": {"tested_on": "glutathione (GSH)", "assay": "In vitro antioxidant capacity test: glutathione (GSH)", "details": "strain suspension 2 × 10^10 CFU/ml; vitamin C 0.05%; mean ± SD", "protocol": "as §3"}, "[4]": {"assay": "DPPH radical scavenging test (colorimetric, 517 nm)", "details": "strain suspension 2 × 10^10 CFU/ml; vitamin C 0.05%; mean ± SD", "protocol": "as §3"}, "[5]": {"assay": "In vitro antioxidant capacity test: total antioxidant capacity (T-AOC)", "details": "strain suspension 2 × 10^10 CFU/ml; vitamin C 0.05%; mean ± SD", "protocol": "as §3"}},
  "data": [
    {"compound": "CC1(C)S[C@@H]2[C@H](NC(=O)[C@H](N)c3ccccc3)C(=O)N2[C@H]1C(=O)O", "note": "[Ampicillin]", "values": [
      {"measurement": "Susceptibility (class by Diameter of Inhibition Zone), HOM1213 Group", "setting": "[1]", "result": "R"},
      {"measurement": "Susceptibility of L. rhamnosus HOM1213 strain to the antibiotic, in words", "setting": "[1]", "result": "resistant"},
      {"measurement": "Susceptibility (class by Diameter of Inhibition Zone), GG Group", "setting": "L. rhamnosus GG strain", "result": "R"}
    ]},
    {"compound": "O=C(N[C@H](CO)[C@H](O)c1ccc([N+](=O)[O-])cc1)C(Cl)Cl", "note": "[Chloramphenicol]", "values": [
      {"measurement": "Susceptibility (class by Diameter of Inhibition Zone), HOM1213 Group", "setting": "[1]", "result": "S"},
      {"measurement": "Susceptibility (class by Diameter of Inhibition Zone), GG Group", "setting": "L. rhamnosus GG strain", "result": "S"}
    ]},
    {"compound": "CCC[C@@H]1C[C@@H](C(=O)N[C@@H]([C@H]2O[C@H](SC)[C@H](O)[C@@H](O)[C@H]2O)[C@H](C)Cl)N(C)C1", "note": "[Clindamycin]", "values": [
      {"measurement": "Susceptibility (class by Diameter of Inhibition Zone), HOM1213 Group", "setting": "[1]", "result": "S"},
      {"measurement": "Susceptibility (class by Diameter of Inhibition Zone), GG Group", "setting": "L. rhamnosus GG strain", "result": "S"}
    ]},
    {"compound": "CC[C@H]1OC(=O)[C@H](C)[C@@H](O[C@H]2C[C@@](C)(OC)[C@@H](O)[C@H](C)O2)[C@H](C)[C@@H](O[C@@H]2O[C@H](C)C[C@H](N(C)C)[C@H]2O)[C@](C)(O)C[C@@H](C)C(=O)[C@H](C)[C@@H](O)[C@]1(C)O", "note": "[Erythromycin]", "values": [
      {"measurement": "Susceptibility (class by Diameter of Inhibition Zone), HOM1213 Group", "setting": "[1]", "result": "S"},
      {"measurement": "Susceptibility (class by Diameter of Inhibition Zone), GG Group", "setting": "L. rhamnosus GG strain", "result": "S"}
    ]},
    {"compound": "NC[C@H]1O[C@H](O[C@H]2[C@H](O)[C@@H](O[C@H]3O[C@H](CO)[C@@H](O)[C@H](N)[C@H]3O)[C@H](N)C[C@@H]2N)[C@H](O)[C@@H](O)[C@@H]1O", "note": "[Kanamycin]", "values": [
      {"measurement": "Susceptibility (class by Diameter of Inhibition Zone), HOM1213 Group", "setting": "[1]", "result": "R"},
      {"measurement": "Susceptibility (class by Diameter of Inhibition Zone), GG Group", "setting": "L. rhamnosus GG strain", "result": "R"}
    ]},
    {"compound": "[H]/N=C(/N)N[C@H]1[C@H](O)[C@@H](O)[C@H](O[C@@H]2O[C@@H](C)[C@](O)(C=O)[C@H]2O[C@@H]2O[C@@H](CO)[C@H](O)[C@@H](O)[C@@H]2NC)[C@@H](N/C(N)=N\\[H])[C@@H]1O", "note": "[Streptomycin]", "values": [
      {"measurement": "Susceptibility (class by Diameter of Inhibition Zone), HOM1213 Group", "setting": "[1]", "result": "I"},
      {"measurement": "Susceptibility of L. rhamnosus HOM1213 strain to the antibiotic, in words", "setting": "[1]", "result": "moderately resistant"},
      {"measurement": "Susceptibility (class by Diameter of Inhibition Zone), GG Group", "setting": "L. rhamnosus GG strain", "result": "I"}
    ]},
    {"compound": "CN(C)[C@@H]1C(O)=C(C(N)=O)C(=O)[C@@]2(O)C(O)=C3C(=O)c4c(O)cccc4[C@@](C)(O)[C@H]3C[C@@H]12", "note": "[Tetracycline]", "values": [
      {"measurement": "Susceptibility (class by Diameter of Inhibition Zone), HOM1213 Group", "setting": "[1]", "result": "S"},
      {"measurement": "Susceptibility (class by Diameter of Inhibition Zone), GG Group", "setting": "L. rhamnosus GG strain", "result": "S"}
    ]},
    {"compound": "CN[C@H](CC(C)C)C(=O)N[C@H]1C(=O)N[C@@H](CC(N)=O)C(=O)N[C@H]2C(=O)N[C@H]3C(=O)N[C@H](C(=O)N[C@H](C(=O)O)c4cc(O)cc(O)c4-c4cc3ccc4O)[C@H](O)c3ccc(c(Cl)c3)Oc3cc2cc(c3O[C@@H]2O[C@H](CO)[C@@H](O)[C@H](O)[C@H]2O[C@H]2C[C@](C)(N)[C@H](O)[C@H](C)O2)Oc2ccc(cc2Cl)[C@H]1O", "note": "[Vancomycin]", "values": [
      {"measurement": "Susceptibility (class by Diameter of Inhibition Zone), HOM1213 Group", "setting": "[1]", "result": "R"},
      {"measurement": "Susceptibility of L. rhamnosus HOM1213 strain to the antibiotic, in words", "setting": "[1]", "result": "resistant"},
      {"measurement": "Susceptibility (class by Diameter of Inhibition Zone), GG Group", "setting": "L. rhamnosus GG strain", "result": "R"}
    ]},
    {"compound": "O=C1O[C@H]([C@@H](O)CO)C(O)=C1O", "note": "[Vitamin C]", "values": [
      {"measurement": "SOD", "setting": "[2]", "result": "18.07±1.08", "unit": "U/mL"},
      {"measurement": "·OH Scavenging Rate (%)", "setting": "[3]", "result": "36.70±1.33", "unit": "%"},
      {"measurement": "GSH", "setting": "glutathione (GSH)", "result": "0.33±0.06", "unit": "mgGSH/L"},
      {"measurement": "DPPH Scavenging Rate (%)", "setting": "[4]", "result": "96.14±0.08", "unit": "%"},
      {"measurement": "T-AOC", "setting": "[5]", "result": "16.90±1.42", "unit": "U/mL"}
    ]},
    {"compound": "Gentamicin", "values": [
      {"measurement": "Susceptibility (class by Diameter of Inhibition Zone), HOM1213 Group", "setting": "[1]", "result": "R"},
      {"measurement": "Susceptibility of L. rhamnosus HOM1213 strain to the antibiotic, in words", "setting": "[1]", "result": "resistant"},
      {"measurement": "Susceptibility (class by Diameter of Inhibition Zone), GG Group", "setting": "L. rhamnosus GG strain", "result": "R"}
    ]}
  ]
}
